Reference: a melting point compilation (Tetko et al.; mined from patent text by program, amines drawn as free bases though some values may be those of a salt)

SMILES | melting point
C=CCCOC[C@H]1CC[C@H](c2ccc(C#N)cc2)CC1 | 12.7 °C
CCc1c(CCNC(=O)CCCCC(=O)O)ccc(OC)c1OC | 92 to 94 °C
COc1ccc(CCNc2nc(Cl)nc(N3CCc4cc(OC)c(OC)cc4C3)n2)cc1OC | 152 to 153 °C
C#CCOc1nc(-n2ccnc2)c(I)c(C(F)(F)F)n1 | 128 to 129 °C
Cn1c(CO)c(-c2ccccc2)c2ccccc2c1=O | 159 to 161 °C
CCCCCC(C(=O)O)n1cnc2cc(-c3ccccc3-c3nn[nH]n3)ccc21 (stereo unspecified) | 123 to 130 °C
CS(=O)(=O)c1ccc(-c2cnn(CC(=O)c3ccc(C(=O)O)cc3)c(=O)c2-c2ccc(F)cc2)cc1 | 239 to 241 °C
CCc1[nH]n(C2CCCC2)c2nc(-c3ccnc(C)c3)nc(=O)c1-2 | 258 to 259 °C
N#CN1CCC(Oc2c(F)c(F)c(F)c(F)c2F)(c2ccccc2)CC1 | 117 to 120 °C
COc1cccc(Oc2c(NS(=O)(=O)c3ccc(C(C)(C)C)cc3)ncnc2OCCOc2cccnn2)c1 | 170 °C
CC1CN(S(C)(=O)=O)Cc2nc3c(N)nc4ccccc4c3n21 (stereo unspecified) | 258 to 261 °C
CC(C)(C)OC(=O)CCC(N)(CCC(=O)OC(C)(C)C)CCC(=O)OC(C)(C)C | 84 to 86 °C
CNc1nc(-c2ccccc2)c(-c2nc3ccccc3c(=O)n2-c2ccccc2)s1 | 224 to 225 °C
O=S1(=O)c2cccc3cccc(c23)N1CCCCN1CCN(c2noc3ccccc23)CC1 | 138 °C
CC1(C)Oc2ccc(C#N)cc2C(Oc2cccnc2)C1(C)O (stereo unspecified) | 193 to 196 °C
C=C[Si]12OC3CC(CC(C3)O1)O2 | 116 °C
O=C1Nc2ccc(Cl)cc2C(c2ccccc2)=NC1OCCc1ccc(O)cc1 (stereo unspecified) | 222 to 230 °C
Nc1ccc(Oc2c(Cl)cc(C(F)(F)F)c(Cl)c2Cl)cc1Cl | 128 °C
Cc1c(C)c(C)c2c(c1C)CCCC2 | 81.5 to 82 °C
O=c1c2ccccc2nc2n1CS(=O)(=O)N2 | > 300 °C
CCC(C(=O)c1ccc(OCc2ccccc2)cc1)c1ccc(OCc2ccccc2)cc1 (stereo unspecified) | 84 °C
CCOC(=O)N1CCN(c2nc3c(cc2F)c(=O)c(C(=O)O)cn3C2CC2)CC1 | 277 to 279 °C
CC(C)(C)c1nc(C(N)=S)nc(C(C)(C)C)c1O | 169 to 171 °C
CC(C)n1cc(-c2cccc(Cl)c2)c2ncccc2c1=O | 164 °C
CC(C)(O)P(=O)(c1ccccc1)c1ccccc1 | 96 to 98 °C
Cc1noc(C)c1Cn1cc(N2C(=O)c3ccccc3C2=O)cn1 | 170 to 171 °C

SMILES | melting point
CC(=O)NC(COC(F)F)C(=O)NCc1ccccc1 (stereo unspecified) | 173 °C
COc1cc2c3ccc(OC)c(OC)c3n(Cc3ccccc3)c2cc1OC | 174 to 175 °C
CCCCCOC(=O)Oc1ccc(-c2ccc(C#N)cc2)cc1 | 50.1 to 51 °C
COc1ccc(Cl)cc1C(=O)N(C)OC | 80 to 83 °C
Cc1nnc2n1-c1ccc([N+](=O)[O-])cc1C(c1ccccc1)=NC2 | 233 to 234 °C
CCCCC(NC(=O)OCc1ccccc1)P(C)(=O)O (stereo unspecified) | 134 to 135 °C
O=C(O)C(Cc1ccc(OCc2ccccc2)cc1)c1ccccc1 (stereo unspecified) | 133 to 137 °C
COc1cc(-c2ccc(C(=N)NO)cc2)cc(-c2nc3cc(C(=N)NO)ccc3[nH]2)c1O | 319 to 321 °C
FC(F)(F)/C(=C(/c1ccccc1)c1ccc(OCCBr)cc1)c1ccccc1 | 135 to 138 °C
OCc1cc(C(F)(F)F)ccc1Sc1ccccc1 | 84 °C
CC1(Cc2ccc(OCc3ccccc3)cc2)OCCO1 | 58 to 62 °C
COc1ccc2cc(NC(C)=O)c3ccc(C)cc3c2c1OC | 190 to 192 °C
O=C(NCCCOc1ccncc1)c1cccnc1 | 117 to 119 °C
O=C(O)C(Cc1ccccc1)=NNc1ccc(Cl)c(Cl)c1 | 166 to 167 °C
NCC1CCCC(CNc2ncc3ncnc(Nc4ccc(F)c(Cl)c4)c3n2)C1 (stereo unspecified) | 145 to 148 °C
CCN(CC)CCOc1ccc(Nc2ncc3c(=O)n(Cc4ccc(OC)cc4)c(=O)n(C(C)C)c3n2)cc1 | 139 to 141 °C
COC(=O)c1ccc(Cl)cc1NC(=O)CSc1ccc(N)cc1 | 145 to 147 °C
CC1(CN2CCN(c3ccc(C(F)(F)F)cc3)CC2)Cn2cc([N+](=O)[O-])nc2O1 (stereo unspecified) | 159 to 160 °C
Nc1nc(N)nc(C23CCN(CC2)CC3)n1 | > 245 °C
COC(c1ccc(Cl)c2nc3n(c12)CCCN3c1ccc(Cl)cc1Cl)C1CC1 (stereo unspecified) | 138 to 139 °C
CCOC(=O)C(C#N)=C1CC(C)(C)c2cc(OC)c(OC)cc21 | 148 to 149 °C
Cc1cc(CO)ccc1NC(=O)CN(C(=O)OC(C)(C)C)c1ccc(F)c(F)c1 | 134 to 136 °C
CCCCCCCCCCCCCCCCOC(=O)C(C)Nc1cccc(O)c1 (stereo unspecified) | 35 to 40 °C
CCc1nc2ccc3c(c2nc1CC)OC(COS(=O)(=O)c1ccc(C)cc1)CO3 (stereo unspecified) | 132 to 135 °C
c1ccc(-c2ccnc(Nc3cccc(-n4ccnc4)c3)n2)nc1 | 210 to 211 °C
COCOc1ccc2sc(C=O)cc2c1 | 81 to 82 °C

SMILES | melting point
COC=C(C(=O)OC)c1ccccc1Oc1ncnc(F)c1F | 69 °C
O=Cc1cnc2sc3cc(F)ccc3n12 | 182 to 183 °C
Cc1cc(C2=C(c3cccc(F)c3)C(=O)C(C)(C)O2)ccc1S(N)(=O)=O | 81 to 82 °C
CC(=O)c1ccc(O)c(CCCc2ccccc2)c1O | 120 to 122 °C
C=C1CC2CC(O)CCC2(C)C2CC(O)C3(C)C(C(C)CCC(=O)O)CCC3C12 (stereo unspecified) | 199 to 202 °C
Cc1oc(-c2ccccc2)nc1C=Cc1ccc(/C=C/C=O)cc1 | 191 to 192 °C
CC(C)(N)C(O)c1cc(C(F)(F)F)nc2c(C(F)(F)F)cccc12 (stereo unspecified) | 175 to 176 °C
O=C(O)c1ccccc1C(=O)NCCN1CCN(CCOC(c2ccccc2)c2ccccc2)CC1 | 45 °C
C(=C\c1nc(COc2cccc(CCCn3cncn3)c2)co1)/c1ccccc1 | 59 to 60 °C
O=C1OCCN1CCN1CCN(Cc2ccccc2)CC1 | 82 to 84 °C
O=C(Nc1ccccc1)Nn1ccc2ccccc21 | 243 °C
CCOC(=O)C1=CC(=O)C(C(=O)OCC)=C(S(=O)(=O)c2ccccc2)C1=O | 112 to 114 °C
Clc1ccc(C2OC3(CCN(Cc4ccccc4)CC3)N3CCCCC23)cc1 (stereo unspecified) | 134 to 136 °C
O=S1(=O)NC(C2CC2)Nc2ccc(S(=O)(=O)N3CCCCC3)cc21 (stereo unspecified) | 228 to 231 °C
Cc1cc(-c2cc(C(F)(F)F)nn2-c2ccc(S(C)(=O)=O)c(F)c2)ccc1-c1cocn1 | 141 to 143 °C
CCOC(=O)Nc1c([N+](=O)[O-])cc(C)c(C)c1[N+](=O)[O-] | 51 to 54 °C
COC(=O)Nc1cn2nc(OCc3cc(OC)ccc3OC)ccc2n1 | 228 to 230 °C
CC(C)CN(C(=O)N(CCCl)N=O)C1OC(OC2CCCCC2)C(O)C(O)C1O (stereo unspecified) | 74 to 76 °C
CCC(C)(C)NC(=S)Nc1cc(F)cc(Cl)c1 | 116 to 118 °C
COC(=O)CCCC#Cc1cc(Cl)ccc1NS(=O)(=O)c1cc(OC)ccc1OC | 115 to 117 °C
O=C1c2c(-c3ccccc3)c3cc(Cl)ccc3n2CCN1CCN1CCCC1 | 134 to 136 °C
Cc1cc(C(=O)C2=NOC(c3cc(Cl)cc(Cl)c3)(C(F)(F)F)C2)ccc1S(=O)(=O)NCc1ccccn1 (stereo unspecified) | 57 to 58 °C
CCCCCCCCCC(=O)Nc1cc(NC(=O)CCCCCCCCC)cc(N(CC(=O)OCc2ccccc2)CC(=O)OCc2ccccc2)c1 | 127 to 129 °C
CC1=NNC(C)=C(C(=O)NN)C1c1ccccc1 (stereo unspecified) | 156 °C
Cc1cccc(C)c1N1C(=N)N(c2cccc(C(F)(F)F)c2)CC1C (stereo unspecified) | 95 to 98 °C
COc1ccc2c(ccn2-c2ccc(Br)cc2)c1 | 90 to 91 °C

SMILES | melting point
COc1cc2[nH]c(C(=O)O)cc2c(C)c1C | 208 °C
CC(C)C1Cc2cc(C=O)sc2C1 (stereo unspecified) | < 50 °C
CCCCc1c(C(=O)C(Cl)(Cl)Cl)c2ccccc2n1C | 112 to 115 °C
Cc1c(C)c2c(c(C)c1O)SC(CCCO)O2 (stereo unspecified) | 116 to 117 °C
N#Cc1cnn2c(C(F)(F)F)cc(-c3ccncc3)nc12 | 233 °C
N#Cc1cc(C=Cc2ccc(N(c3ccccc3)c3ccccc3)cc2)c(C#N)cc1C=Cc1ccc(N(c2ccccc2)c2ccccc2)cc1 | 260 °C
O=C1NC(N2CCCCC2)=N/C1=C\c1c[nH]c2ncc(Cl)cc12 | 315 to 320 °C
CCc1noc(-c2cn(-c3cccc(OCc4ccc(Cl)cc4)c3)cn2)n1 | 137 to 138 °C
Cn1c(=O)c2cc(C(=O)O)cn2c2ccccc21 | 330 to 333 °C
NS(=O)(=O)c1cc2c(s1)S(=O)(=O)N(CCc1ccccc1)C[C@H]2O | 117 to 119 °C
CC(=O)c1cc(-c2ccccc2)c(=O)n2c1-c1ccsc1CC2 | 181 to 182 °C
COc1cc2c(cc1-c1cccnc1)-c1c(-c3cccs3)c3c(n1CC2)C(=O)N(C(C)C)CCN(C(C)=O)C3 | 225 to 226 °C
C[C@]1(CN2CCN(C(=O)c3ccc(Cl)cc3)CC2)Cn2cc([N+](=O)[O-])nc2O1 | 173 to 174 °C
COc1ccc(C(=O)C2(C)CCC(C(=O)O)C2(C)C)c(OC)c1 (stereo unspecified) | 134 °C
CON(C)C(=O)Nc1cc(C(C)(C)C)on1 | 106 to 107 °C
CCCCCCSc1[nH]c2cccc3c2c1CC1C3C=C(C)CN1C (stereo unspecified) | 199 to 201 °C
CCCCn1c(N)c(N=O)c(=O)n(CCCC)c1=O | 199 to 205 °C
CCOCc1cccc2[nH]c3cnc(C(=O)OCC)c(COC)c3c12 | 94 to 97 °C
Cc1ccc(C)n1N(C)c1ccc(Cl)nn1 | 93 to 94.5 °C
CCCCCCCCCCCc1ccc(-c2ccc(OCC(C)CC)nn2)cc1 (stereo unspecified) | 78 °C
O=C(c1ccc(F)cc1)N1CCOC(c2nc(-c3ccc(F)cc3)no2)C1 (stereo unspecified) | 116 to 117 °C
CC(C)n1cc(-c2ccc(F)cc2)c(-c2ccc(F)cc2)c1C(=O)O | 212 °C
CC1(C)Cc2c(c(N3CCCC3)nc3sc4c(NCc5cccnc5)ncnc4c23)CO1 | 289 to 290 °C
